PubChem BioAssay AID256 (DTP/NCI, 2004)
“And” between values parts separate entries of the source, which are not always exact repeats. Identical values can stand only once. Inconclusive results and toxic doses are left out.

Tested on: CD2F1 mice, L1210 leukemia ip, survival T/C
Test: NCI In Vivo Anticancer Drug Screen. Data for tumor model L1210 Leukemia (intraperitoneal) in CD2F1 (CDF1) mice
Conditions: higher = longer survival
In short: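 Each value reflects a quotient of treated over vehicle control outcomes in mice with a transplanted tumor.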

[1] = endpoint: mean survival time, dose: 100.0 mg/kg/injection, schedule: Q01DX009 (ip), vehicle: saline with Tween-80
[2] = endpoint: mean survival time, dose: 100.0 mg/kg/injection, schedule: Q04DX003 (ip), vehicle: saline with Tween-80
[3] = endpoint: mean survival time, dose: 200.0 mg/kg/injection, schedule: Q01DX009 (ip), vehicle: saline with Tween-80
[4] = endpoint: mean survival time, dose: 200.0 mg/kg/injection, schedule: Q04DX003 (ip), vehicle: saline with Tween-80
[5] = endpoint: mean survival time, dose: 400.0 mg/kg/injection, schedule: Q01DX009 (ip), vehicle: saline with Tween-80
[6] = endpoint: mean survival time, dose: 400.0 mg/kg/injection, schedule: Q04DX003 (ip), vehicle: saline with Tween-80
[7] = endpoint: mean survival time, dose: 100.0 mg/kg/injection, schedule: Q04DX002 (ip), vehicle: saline with Tween-80
[8] = endpoint: mean survival time, dose: 200.0 mg/kg/injection, schedule: Q04DX002 (ip), vehicle: saline with Tween-80
[9] = endpoint: mean survival time, dose: 400.0 mg/kg/injection, schedule: Q04DX002 (ip), vehicle: saline with Tween-80
[10] = endpoint: mean survival time, dose: 25.0 mg/kg/injection, schedule: Q01DX009 (ip), vehicle: saline
[11] = endpoint: mean survival time, dose: 50.0 mg/kg/injection, schedule: Q01DX009 (ip), vehicle: saline
[12] = endpoint: mean survival time, dose: 100.0 mg/kg/injection, schedule: Q01DX009 (ip), vehicle: saline
[13] = endpoint: mean survival time, dose: 200.0 mg/kg/injection, schedule: Q01DX009 (ip), vehicle: saline
[14] = endpoint: mean survival time, dose: 400.0 mg/kg/injection, schedule: Q01DX009 (ip), vehicle: saline
[15] = endpoint: mean survival time, dose: 12.5 mg/kg/injection, schedule: Q04DX003 (ip), vehicle: saline
[16] = endpoint: mean survival time, dose: 25.0 mg/kg/injection, schedule: Q04DX003 (ip), vehicle: saline
[17] = endpoint: mean survival time, dose: 100.0 mg/kg/injection, schedule: Q01DX009 (ip), vehicle: other
[18] = endpoint: mean survival time, dose: 400.0 mg/kg/injection, schedule: Q01DX009 (ip), vehicle: other

For `CC(C)[CH2][Sn]([CH2]C(C)C)([CH2]C(C)C)[O]C(=O)C1(C)CCCC2(C)C3CCC(C(C)C)=CC3=CCC12` (stereo not drawn), the T/C (endpoint: mean survival time, dose: 3.12 mg/kg/injection, schedule: Q01DX009 (ip), vehicle: saline with Tween-80) was 97 % of control, the T/C (endpoint: mean survival time, dose: 6.25 mg/kg/injection, schedule: Q01DX009 (ip), vehicle: saline with Tween-80) was 90 % of control and the T/C (endpoint: mean survival time, dose: 12.5 mg/kg/injection, schedule: Q01DX009 (ip), vehicle: saline with Tween-80) was 93 % of control.

For `NC(=S)c1ccc(C(N)=S)cc1`, the T/C (endpoint: mean survival time, dose: 100.0 mg/kg/injection, schedule: Q01DX001 (ip), vehicle: Klucel (hydroxypropylcellulose) (HPC)) was 89 % of control, the T/C [1] was 94 % of control and the T/C [2] was 97 % of control. The T/C (endpoint: mean survival time, dose: 200.0 mg/kg/injection, schedule: Q01DX001 (ip), vehicle: Klucel (hydroxypropylcellulose) (HPC)) was 89 % of control, the T/C [3] was 93 % of control and the T/C [4] was 97 % of control. For the same compound, the T/C [5] was 90 % of control and the T/C [6] was 98 % of control.

For `CCOC(=O)c1ccc(NC(=O)N(CC)c2ccccc2)cc1`, the T/C [1] was 96 % of control and 100 % of control, the T/C [7] was 100 % of control and 109 % of control and the T/C [2] was 94 % of control. The T/C [3] was 95 % of control and 104 % of control, the T/C [8] was 92 % of control and 102 % of control and the T/C [4] was 94 % of control. For the same compound, the T/C [5] was 96 % of control and 100 % of control, the T/C [9] was 94 % of control and 98 % of control and the T/C [6] was 95 % of control.

`CC1CC(C)/C(=N/NC(N)=S)C(C(O)CC2CC(=O)NC(=O)C2)C1` (stereo not drawn) was tested, and the T/C [10] was 94 % of control and 100 % of control, the T/C [11] was 100 % of control and 102 % of control and the T/C [12] was 97 % of control and 103 % of control. The T/C [13] was 113 % of control and 102 % of control and the T/C [14] was 113 % of control and 114 % of control.

With `O=C1C2CCN(CC2)C1CN1CCOCC1` (stereo not drawn) the T/C [15] was 96 % of control, the T/C [16] was 100 % of control and the T/C (endpoint: mean survival time, dose: 50.0 mg/kg/injection, schedule: Q04DX003 (ip), vehicle: saline) was 111 % of control.

`OCC1OC(n2cnc3c(Cl)ncnc32)C(O)C1O` (stereo not drawn) was tested, and the T/C (endpoint: mean survival time, dose: 12.5 mg/kg/injection, schedule: Q01DX009 (ip), vehicle: saline) was 86 % of control, the T/C [10] was 93 % of control and the T/C [11] was 93 % of control. The T/C (endpoint: mean survival time, dose: 62.0 mg/kg/injection, schedule: Q01DX Z (ip), vehicle: carboxymethylcellulose (CMC)) was 97 % of control, the T/C [12] was 98 % of control and the T/C (endpoint: mean survival time, dose: 125.0 mg/kg/injection, schedule: Q01DX Z (ip), vehicle: carboxymethylcellulose (CMC)) was 102 % of control. For the same compound, the T/C [13] was 92 % of control, the T/C (endpoint: mean survival time, dose: 250.0 mg/kg/injection, schedule: Q01DX Z (ip), vehicle: carboxymethylcellulose (CMC)) was 100 % of control and the T/C [14] was 98 % of control. For the same compound, the T/C (endpoint: mean survival time, dose: 500.0 mg/kg/injection, schedule: Q01DX Z (ip), vehicle: carboxymethylcellulose (CMC)) was 96 % of control, the T/C (endpoint: median survival time, dose: 62.5 mg/kg/injection, schedule: Q01DX009 (ip), vehicle: saline) was 94 % of control and 100 % of control and the T/C (endpoint: median survival time, dose: 125.0 mg/kg/injection, schedule: Q01DX009 (ip), vehicle: saline) was 100 % of control. The T/C (endpoint: median survival time, dose: 250.0 mg/kg/injection, schedule: Q01DX009 (ip), vehicle: saline) was 88 % of control and 100 % of control and the T/C (endpoint: median survival time, dose: 500.0 mg/kg/injection, schedule: Q01DX009 (ip), vehicle: saline) was 88 % of control.

With `Cc1cccc[n+]1CCC(N)=O` the T/C (endpoint: mean survival time, dose: 6.25 mg/kg/injection, schedule: Q04DX003 (ip), vehicle: saline) was 96 % of control, the T/C [15] was 88 % of control and the T/C [16] was 91 % of control.

With `COc1ccn(C2OCCC(OC(C)=O)C2O)c(=O)n1` (stereo not drawn) the T/C (endpoint: median survival time, dose: 12.5 mg/kg/injection, schedule: Q01DX005 (ip), vehicle: alkali diluted with saline) was 107 % of control, the T/C (endpoint: median survival time, dose: 25.0 mg/kg/injection, schedule: Q01DX005 (ip), vehicle: alkali diluted with saline) was 120 % of control and the T/C (endpoint: median survival time, dose: 50.0 mg/kg/injection, schedule: Q01DX005 (ip), vehicle: alkali diluted with saline) was 120 % of control. For the same compound, the T/C (endpoint: median survival time, dose: 100.0 mg/kg/injection, schedule: Q01DX005 (ip), vehicle: alkali diluted with saline) was 102 % of control and the T/C (endpoint: median survival time, dose: 200.0 mg/kg/injection, schedule: Q01DX005 (ip), vehicle: alkali diluted with saline) was 109 % of control.

With `CCCCCCCCCCCC(=O)NC(=S)Nc1cccc(C(F)(F)F)c1` the T/C [17] was 95 % of control, the T/C (endpoint: mean survival time, dose: 200.0 mg/kg/injection, schedule: Q01DX009 (ip), vehicle: other) was 103 % of control and the T/C [18] was 103 % of control.

In the case of `COc1ccc2c(c1)CCC1C(=O)NN=C21` (stereo not drawn), the T/C [7] is reported as 103 % of control, the T/C [8] is reported as 103 % of control and the T/C [9] is reported as 103 % of control.

In the case of `CC(=O)Nc1ccc(N=NN(C)C)cc1`, the T/C (endpoint: mean survival time, dose: 4.68 mg/kg/injection, schedule: Q01DX009 (ip), vehicle: Klucel (hydroxypropylcellulose) (HPC)) is reported as 106 % of control and 109 % of control and the T/C (endpoint: mean survival time, dose: 9.37 mg/kg/injection, schedule: Q01DX009 (ip), vehicle: Klucel (hydroxypropylcellulose) (HPC)) is reported as 114 % of control and 116 % of control.

In the case of `CC(=O)Nc1ccc2c(Nc3ccc(NS(C)(=O)=O)cc3)c3ccccc3nc2c1`, the T/C (endpoint: mean survival time, dose: 8.0 mg/kg/injection, schedule: Q01DX009 (ip), vehicle: saline with Tween-80) is reported as 192 % of control, the T/C (endpoint: mean survival time, dose: 12.0 mg/kg/injection, schedule: Q01DX009 (ip), vehicle: saline with Tween-80) is reported as 203 % of control and the T/C (endpoint: mean survival time, dose: 18.0 mg/kg/injection, schedule: Q01DX009 (ip), vehicle: saline with Tween-80) is reported as 105 % of control. For the same compound, the T/C (endpoint: mean survival time, dose: 100.0 mg/kg/injection, schedule: Q04DX003 (ip), vehicle: saline) was 122 % of control and the T/C (endpoint: mean survival time, dose: 200.0 mg/kg/injection, schedule: Q04DX003 (ip), vehicle: saline) was 101 % of control.

With `Cc1ccc(C(=O)CC(O)(C(F)(F)F)C(F)(F)F)cc1` the T/C [17] was 106 % of control and the T/C [18] was 112 % of control.

With `O=Cc1cc([N+](=O)[O-])cc(CCl)c1O` the T/C (endpoint: mean survival time, dose: 25.0 mg/kg/injection, schedule: Q01DX009 (ip), vehicle: Klucel (hydroxypropylcellulose) (HPC)) was 95 % of control, the T/C (endpoint: mean survival time, dose: 50.0 mg/kg/injection, schedule: Q01DX009 (ip), vehicle: Klucel (hydroxypropylcellulose) (HPC)) was 95 % of control and the T/C (endpoint: mean survival time, dose: 100.0 mg/kg/injection, schedule: Q01DX009 (ip), vehicle: Klucel (hydroxypropylcellulose) (HPC)) was 101 % of control.
